Data set [1] addresses T1, rat KOR (Rattus norvegicus, UniProt P34975).
T1 construct: expressed in transfected cells
Description: radioligand equilibrium competition binding, KOR. As to conditions: CHO cell membranes, [3H]diprenorphine; mean ± SEM, at least three experiments. Here is the method: (§1) Opioid receptor affinities were determined by equilibrium radioligand binding assays as previously described with membranes from Chinese hamster ovary (CHO) cells stably expressing rat KOR, rat MOR, or mouse DOR using the radioligands [^3H]diprenorphine, [^3H][D-Ala^2,N-MePhe^4,glyol]enkephalin (DAMGO), and [^3H][D-Pen^2,D-Pen^5]enkephalin (DPDPE), respectively. Following determination of IC50 values by nonlinear regression using Prism software (GraphPad Software Co., La Jolla, CA, USA), Ki values were calculated using the Cheng–Prusoff equation [57]. The results are presented as the mean ± SEM from at least three separate experiments, each performed in triplicate.

In data set [2] the target is T2, rat MOR (Rattus norvegicus, UniProt P33535).
T2 construct: expressed in transfected cells
Description: radioligand equilibrium competition binding, MOR. As to conditions: CHO cell membranes, [3H]DAMGO; mean ± SEM, at least three experiments. Here is the method:
as §1

The target in data set [3] is T3, mouse DOR (Mus musculus, UniProt P32300).
T3 construct: expressed in transfected cells
In words: radioligand equilibrium competition binding, DOR. As to conditions: CHO cell membranes, [3H]DPDPE; mean ± SEM, at least three experiments (D-Nal(1′)^4 n = 2). Here is the method:
as §1

Data set [4] in a line: metabolism by mouse liver microsomes. It is filed as in vitro ADME. As to conditions: read-out: t1/2 in mouse liver microsomes. The procedure: The metabolism of the macrocyclic tetrapeptides by mouse liver microsomes was evaluated as previously described, with the amount of peptide remaining determined by LC-MS/MS [55] using [D-MeAla^2]CJ-15,208 [53] as the internal standard.

For data set [5], the system named is C57BL/6J mice. In words: 55 °C warm-water tail-withdrawal assay, antinociception after i.c.v. administration. It is filed as in vivo, mouse. The arrangement: key: ~: Maximum antinociception not achieved, precluding calculation of an ED50 value. The procedure:
For intracerebroventricular administration, the macrocyclic peptides were dissolved in dimethyl sulfoxide (DMSO), followed by addition of sterile saline (0.9%) so that the final vehicle was 50% DMSO and 50% saline, and the i.c.v. injections were performed as described previously. This concentration of DMSO was not observed to have antinociceptive or behavioral effects in previous use. All solutions for animal administration were prepared fresh daily.
The 55 °C warm-water tail-withdrawal assay was performed in mice as previously described, with the latency of the mouse to withdraw its tail from the water taken as the endpoint (a cut-off time of 15 s was used in this assay). Antinociception was calculated according to the following formula: % antinociception = 100 × (test latency − control latency)/(15 − control latency). Tail-withdrawal data points are the means of 8–16 mice, unless otherwise indicated, with SEM shown by error bars.
All dose–response lines were analyzed by regression, and ED50 (effective dose producing 50% antinociception) values and 95% C.I. were determined using individual data points from graded dose–-response curves with Prism 8.0 software (GraphPad, La Jolla, CA, USA). Percent antinociception was used to determine within-group effects and to allow comparison to baseline latency in tail-withdrawal experiments. The statistical significance of differences between ED50 values was determined by evaluation of the ED50 value shift via nonlinear regression modeling with Prism software. Significant differences in behavioral data were analyzed by ANOVA (one-way or two-way with repeated measures (RM), as appropriate). Significant results were further analyzed with Sidak’s, Tukey’s, or Dunnett’s multiple comparison post hoc tests, as appropriate. Data for conditioned place preference experiments were analyzed by one-way or two-way RM ANOVA, with analyses examining the main effect of conditioned place preference phase (e.g., pre- or post-conditioning) and the interaction of drug pretreatment and/or exposure. All data are presented as mean ± SEM, with significance set at p < 0.05.

The test system of data set [6] is C57BL/6J mice. Description: acute antinociceptive tolerance (dosing at 0 and 8 h). As to conditions: i.c.v.; for Naïve ED50 (95% C.I.): naïve mice. The procedure: The degree of tolerance was calculated from the shift in ED50 value from the singly to repeatedly treated condition.
Data set [7] has as its system C57BL/6J mice. Description: respiration rate, CLAMS/Oxymax. It is filed as in vivo, mouse. The conditions noted are these: i.c.v.; [Nal(2′)^4]CJ-15,208 100 nmol, morphine 30 nmol; 80 min. The procedure:
(§2) Respiration rates (in breaths per minute) and animal locomotive activity (as ambulation) were assessed using the Oxymax/CLAMS system (Columbus Instruments, Columbus, OH, USA) as described previously. Mice were habituated to their individual sealed housing chambers for 60 min before testing. […] Pressure monitoring within the sealed chambers measured frequency of respiration. Infrared beams located in the floor measured locomotion as number of beam breaks. Respiration and locomotive data were averaged over 20 min periods for 80 min post-injection of the test compound. Data are presented as % vehicle response ± SEM; ambulation, or breaths per minute.

For data set [8], the system named is C57BL/6J mice. In words: spontaneous locomotor activity (ambulation), CLAMS/Oxymax. It is filed as in vivo, mouse. The conditions noted are these: i.c.v.; [Nal(2′)^4]CJ-15,208 100 nmol, morphine 30 nmol; 80 min. Here is the method: as §2
Data set [9] relates to C57BL/6J mice. As to conditions: mouse, in vivo.
In a further data set the test system is MOR, KOR, DOR. Description: opioid receptor involvement in antinociception (KO mice / selective antagonist pretreatment), tail-withdrawal assay. It is filed as in vivo, mouse. The conditions noted are these: dose producing maximum antinociception, i.c.v., KOR KO mice or β-FNA, nor-BNI, naltrindole pretreatment. The procedure: Except for the Bta^4 analog, contributions of the MOR and KOR were assessed in knockout (KO) mice for those receptors; DOR contribution to the antinociceptive activity of the analogs was assessed by pretreating mice with naltrindole (20 mg/kg, i.p., −20 min) prior to administration of analog (Figure 3).
Assessment of DOR involvement in the agonist activity of each macrocyclic peptide was performed by pretreating additional wild-type mice with a single dose of naltrindole (20 mg/kg, i.p.) 20 min in advance of administration of the macrocyclic peptide.

The target in another data set is T4, KOR (Mus musculus, UniProt P33534).
T4 construct: endogenous in cells; host or cells: living adult male C57BL/6J mice
Description: antagonism of U50,488 antinociception, tail-withdrawal assay. It is filed as in vivo. As to conditions: peptide i.c.v. (3-300 nmol, Figure 4) 140 min before U50,488 10 mg/kg i.p. Here is the method: ; at this time, the antinociceptive activity of the analogs had dissipated. Antinociception produced by the established opioid agonists was then measured 40 min after their administration. The dose response of KOR or DOR antagonism produced by selected analogs was further determined by evaluating antinociception after administration of one of three additional i.c.v. doses of the analog.

Data set [10] addresses T1, rat KOR. The conditions noted are these: parent peptides; mean ± SEM; cited from earlier work.
Data set [11] concerns the target T2, rat MOR. The conditions noted are these: parent peptides; mean ± SEM; cited from earlier work.
Data set [12] deals with T3, mouse DOR. As to conditions: parent peptides; mean ± SEM; cited from earlier work.
Setting [13] is: antinociception at peak response.
The mark [14] stands for this setting: acute tolerance, dosing at 0 and 8 h.

This is an account of results in PMC10535824, “Tryptophan Substitution in CJ-15,208 (cyclo[Phe-D-Pro-Phe-Trp]) Introduces δ-Opioid Receptor Antagonism, Preventing Antinociceptive Tolerance and Stress-Induced Reinstatement of Extinguished Cocaine-Conditioned Place Preference” (Pharmaceuticals, 2023).

Read-outs that look alike come from different tables or passages of the source. Square brackets hold non-standard residues; d marks the D form. Peptide text beside a SMILES is read from it. 1Nal = N[C@@H](Cc1cccc2ccccc12)C(=O)O; 2Nal = N[C@@H](Cc1ccc2ccccc2c1)C(=O)O; d1Nal = N[C@H](Cc1cccc2ccccc12)C(=O)O; d2Nal = N[C@H](Cc1ccc2ccccc2c1)C(=O)O; Bta = N[C@@H](Cc1csc2ccccc12)C(=O)O; dBta = N[C@H](Cc1csc2ccccc12)C(=O)O A value given as a limit tells only on which side of the number the result lay.

A word on the Ki: it is the equilibrium dissociation constant of an inhibitor or competing ligand from its target. Consider `O=C1N[C@@H](Cc2ccccc2)C(=O)N2CCC[C@@H]2C(=O)N[C@@H](Cc2ccccc2)C(=O)N[C@H]1Cc1csc2ccccc12` [Bta^4, [Bta^4]CJ-15,208] (cyclo(F[dP]F[Bta])), for which the Ki on rat KOR [1] was found to be 51.9 ± 4.8 nM; at rat MOR [2], 90.3 ± 38.5 nM; at mouse DOR [3], 1600 ± 360 nM. The half-life in data set [4] came out at 28 min. For the same compound, in the data set on C57BL/6J mice [5] (setting [13]), the “ED50 (and 95% C.I.) i.c.v.” value is on record as 13.2 (9.62–18.2) nmol.
As to `O=C1N[C@H](Cc2csc3ccccc23)C(=O)N[C@@H](Cc2ccccc2)C(=O)N2CCC[C@@H]2C(=O)N[C@H]1Cc1ccccc1` [D-Bta^4, [D-Bta^4]CJ-15,208] (cyclo(F[dP]F[dBta])), the results for the Ki at rat KOR [1], at rat MOR [2] and at mouse DOR [3] were 4.29 ± 0.38 nM, 84.2 ± 11.8 nM and greater than 10000 nM, respectively.
The matching figures for `O=C1N[C@H](Cc2cccc3ccccc23)C(=O)N[C@@H](Cc2ccccc2)C(=O)N2CCC[C@@H]2C(=O)N[C@H]1Cc1ccccc1` [D-Nal(1′)^4, [D-Nal(1′)^4]CJ-15,208] (cyclo(F[dP]F[d1Nal])): 21.4 ± 0.7 nM, 101 ± 25 nM and greater than 10000 nM.
With `O=C1N[C@H](Cc2ccc3ccccc3c2)C(=O)N[C@@H](Cc2ccccc2)C(=O)N2CCC[C@@H]2C(=O)N[C@H]1Cc1ccccc1` [D-Nal(2′)^4, [D-Nal(2′)^4]CJ-15,208] (cyclo(F[dP]F[d2Nal])), the results for the Ki on rat KOR [1], at rat MOR [2] and on mouse DOR [3] were 12.3 ± 1.8 nM, 63.8 ± 5 nM and greater than 10000 nM, respectively. In addition, the “ED50 (and 95% C.I.) i.c.v.” value in the data set on C57BL/6J mice [5] (setting [13]) is listed as 31.2 (22.5–41.9) nmol.
Consider `CN1CC[C@]23c4c5ccc(O)c4O[C@H]2[C@@H](O)C=C[C@H]3[C@H]1C5` [Morphine, reference compound], for which the “ED50 (and 95% C.I.) i.c.v.” value in the data set with C57BL/6J mice [5] (setting [13]) is 2.35 (1.13–5.03) nmol. For the same compound, the “Naïve ED50 (95% C.I.)” value with C57BL/6J mice [6] is 2.35 (1.13–5.03) nmol. Further, the “effect on respiration rate vs. vehicle” value in the data set with C57BL/6J mice [7] is reported as “produced significant, time-dependent respiratory depression”. Further, the “effect on ambulation vs. vehicle” value in the data set with C57BL/6J mice [8] is recorded as “significantly increased ambulation”. Also, in the data set on C57BL/6J mice [9] (C57BL/6J), the “conditioned place preference or aversion” value is recorded as “significant (p = 0.03) place preference”.
In the case of `O=C1N[C@@H](Cc2ccccc2)C(=O)N2CCC[C@@H]2C(=O)N[C@@H](Cc2ccccc2)C(=O)N[C@H]1Cc1cccc2ccccc12` [Nal(1′)^4, [Nal(1′)^4]CJ-15,208] (cyclo(F[dP]F[1Nal])), the values for the Ki at rat KOR [1], on rat MOR [2] and on mouse DOR [3] were 103 ± 6 nM, 110 ± 16 nM and 1920 ± 120 nM, respectively. In addition, in the data set with C57BL/6J mice [5] (setting [13]), the “ED50 (and 95% C.I.) i.c.v.” value is on record as 0.24 (0.19–0.31) nmol.
As for `O=C1N[C@@H](Cc2ccccc2)C(=O)N2CCC[C@@H]2C(=O)N[C@@H](Cc2ccccc2)C(=O)N[C@H]1Cc1ccc2ccccc2c1` [Nal(2′)^4, [Nal(2′)^4]CJ-15,208] (cyclo(F[dP]F[2Nal])), the inhibitory constant (Ki) stood at 358 ± 137 nM on rat KOR [1], 583 ± 59 nM at rat MOR [2] and 3300 ± 360 nM on mouse DOR [3]. In addition, the half-life in [4] was greater than 60 min. In the data set on C57BL/6J mice [5] (setting [13]), the “ED50 (and 95% C.I.) i.c.v.” value is given as 19.5 (15.8–24.0) nmol. Also, in the data set with C57BL/6J mice [6] (setting [14]), the “Fold-Shift, Naïve ED50 vs. Second ED50” value turned out to be 0.37. Moreover, the “leftward shift in the dose–response curve of the second dose” value in the data set with C57BL/6J mice [6] (setting [14]) came out at 2.7 fold. Besides, the “Naïve ED50 (95% C.I.)” value with C57BL/6J mice [6] is 19.5 (15.8–24.0) nmol. Moreover, the “effect on respiration rate vs. vehicle” value in the data set with C57BL/6J mice [7] is recorded as “did not significantly impair breathing”. Besides, the “effect on ambulation vs. vehicle” value with C57BL/6J mice [8] is on record as “not significant”. Also, in the data set on C57BL/6J mice [9], the “conditioned place preference or aversion” value was “no significant preference or aversion”.
With cyclo(F[dP]FW) [CJ-15,208], the “ED50 (and 95% C.I.) i.c.v.” value in the data set on C57BL/6J mice [5] (setting [13]) is given as 1.74 (0.62–4.82) nmol. In the data set with MOR, KOR, DOR, the “Receptors Involved in antinociception” value is reported as “KOR, MOR”. The “antagonism of U50,488 antinociception (KOR antagonism)” value at KOR was “displayed significant KOR antagonism”. In addition, the Ki on rat KOR [10] is 27.4 ± 4.6 nM; at rat MOR [11], 451 ± 114 nM; at mouse DOR [12], 1720 ± 350 nM.
Consider cyclo(F[dP]F[dW]) [[D-Trp]CJ-15,208], for which, in the data set on C57BL/6J mice [5] (symbol where no ED50 could be calculated), the “ED50 (and 95% C.I.) i.c.v.” value is “~”. Also, the “antagonism of U50,488 antinociception (KOR antagonism)” value at KOR was “significantly antagonized U50,488-induced antinociception”. The Ki was 21.8 ± 4.8 nM at rat KOR [10], 259 ± 29 nM at rat MOR [11] and 4190 ± 860 nM at mouse DOR [12].
